How the values were obtained:
[1] = system: WT (C57BL/6J) mice; test: Observations during the 16-day metyrapone injection period before jet lag; format: in vivo, mouse; settings: for effect on the onset of wheel-running activity: during injection period
Protocol: Handling and activity measurements during experiments were performed as described previously (Jud et al. 2005). Wheel-running activity was analyzed using ClockLab software (Actimetrics). For the jet lag experiment (6-hour rapid advance or 8-hour rapid delay of the LD cycle), animals were single-housed in running wheel-equipped cages for 2 weeks or longer under LD conditions (lights on, ZT0; light intensities of 350 lux). On day 1 of the jet lag, the lights-off time (ZT12) was shifted from 6 pm to […] (phase advance paradigm) or from 6 pm to 2 am (phase delay paradigm). Using a short day protocol, we defined day 1 as the first advanced dark period (similar to Davidson et al. 2009, who used a short night approach in which the first day is defined by the deemed light period; but different from Yamazaki et al. 2000, where the following day—corresponding to day 2 in our study—was referred to as day 1). For the delay experiment (8-hour rapid delay of the LD cycle), animals were housed in running wheel—equipped single cages for 2 weeks or longer under LD conditions (lights on, ZT0; light intensities of 50 lux). On day 1 of the jet lag, the lights-off time (ZT12) was shifted from 12 pm to 8 pm. Day 1 was defined here as the day with the first delayed dark period. Animals were synchronized to the new LD regimen for another 2 weeks during which time of wheel-running activity was recorded. Individual activity onsets before and after the shift were determined by visual inspection and averaged over the whole cohort to asses reentrainment rates. Administration of metyrapone (Sigma-Aldrich) to WT mice was done for 16 days prior to the jet lag procedure (see above). Two sets of 24 animals each received metyrapone dissolved in water (100 mg/kg body weight per day) via i.p. injection at different times during the day. Injections were stopped 1 day before the LD shift (day 0). METD animals were injected during the first half of their rest phase at ZT3; METN animals received metyrapone injections at the beginning of their activity phase at ZT12. […]

[2] = system: WT (C57BL/6J) mice; test: Behavioral reentrainment (wheel-running activity onsets) after 6-hour phase advance of the LD cycle; format: in vivo, mouse
Protocol: (§1) Handling and activity measurements during experiments were performed as described previously (Jud et al. 2005). Wheel-running activity was analyzed using ClockLab software (Actimetrics). For the jet lag experiment (6-hour rapid advance or 8-hour rapid delay of the LD cycle), animals were single-housed in running wheel-equipped cages for 2 weeks or longer under LD conditions (lights on, ZT0; light intensities of 350 lux). On day 1 of the jet lag, the lights-off time (ZT12) was shifted from 6 pm to […] (phase advance paradigm) or from 6 pm to 2 am (phase delay paradigm). Using a short day protocol, we defined day 1 as the first advanced dark period (similar to Davidson et al. 2009, who used a short night approach in which the first day is defined by the deemed light period; but different from Yamazaki et al. 2000, where the following day—corresponding to day 2 in our study—was referred to as day 1). […] Animals were synchronized to the new LD regimen for another 2 weeks during which time of wheel-running activity was recorded. Individual activity onsets before and after the shift were determined by visual inspection and averaged over the whole cohort to asses reentrainment rates. […]
(§2) Peak time analyses were performed using Prism software (GraphPad). […] Maxima were calculated using the axis section of the second derivative. […]

[3] = system: WT (C57BL/6J) mice; test: Behavioral reentrainment (wheel-running activity onsets) after 8-hour phase delay of the LD cycle; format: in vivo, mouse
Protocol: as §1, §2

[4] = system: corticosterone excretion rhythms; test: Fecal corticosterone excretion rhythm after 16 days of timed metyrapone injection; format: in vivo, mouse; settings: for direction of shift of the peak of maximum glucocorticoid levels: mice
Protocol: Fecal samples were collected at 4-hour intervals before and after the jet lag treatment using wheel cages equipped with wire grid floors. To rule out stress-induced effects, animals were transferred to the collection cages 3 days prior to the first sampling interval. Fecal samples were stored at −80° C. Corticoid metabolite extraction and quantification by RIA (MP Biomedicals) were performed as described previously (Abraham et al. 2006).
Administration of metyrapone (Sigma-Aldrich) to WT mice was done for 16 days prior to the jet lag procedure (see above). Two sets of 24 animals each received metyrapone dissolved in water (100 mg/kg body weight per day) via i.p. injection at different times during the day. Injections were stopped 1 day before the LD shift (day 0). METD animals were injected during the first half of their rest phase at ZT3; METN animals received metyrapone injections at the beginning of their activity phase at ZT12. At day 16 of the treatment (day-1 relative to LD shift), fecal samples were collected to analyze the phase shift of corticoid excretion rhythms. Saline-treated (0.9% NaCl) WT littermates injected at ZT3 or ZT12 were used as controls for all experiments.
Peak time analyses were performed using Prism software (GraphPad). A sine wave equation, y=BaseLine+Amplitude sin(frequency x+PhaseShift), was fitted to the data. For gene expression and corticosterone data, frequency was fixed to 24 hours. Maxima were calculated using the axis section of the second derivative. To determine PS50, a sigmoid dose-response curve with variable slope was fitted to the sine wave maxima (corticosterone), y=Bottom+(Top−Bottom) (1+10(log PS50−x) HillSlope), or onset time points (locomotor activity) for each group. To test whether the best-fit PS50 values differed between data sets, data were compared by extra sum-of-squares F test using a P value of less than 0.05 as a threshold. Maxima of gene expression or corticosterone at specific days were compared by Mann-Whitney rank sum test, even if normality tests and equal variance tests were positive, reflecting the small sample sizes of 3-9. A statistically significant difference was assumed with P values less than 0.05. Correlations between phase-shift activity onsets and corticosterone maxima were performed using linear regression. The quality of fit was estimated by r determination. Departure from linearity was tested with runs test. Normality and homoscedasticity tests were passed for all data sets. Diurnal variation of expression data was tested using Fourier analysis with CircWave version 3.3 software (Oster et al. 2006) and threshold values of 0.05 for α and a period of 24 hours.

[5] = system: hamsters; settings: cited from earlier work
[6] = METD (ZT3 injection, 16 days before shift) vs SALD
[7] = METN (ZT12 injection, 16 days before shift) vs SALN

Compound: CC(C)(C(=O)c1cccnc1)c1cccnc1 [metyrapone, 2-methyl-1,2-di-3-pyridyl-1-propanone]
- effect on the onset of wheel-running activity ([1]; METD mice): no effect
- effect on the onset of wheel-running activity ([1]; METN mice): only minor effect
- side effect of injection ([1]; daily i.p. injection, 100 mg/kg, 16 days): transient drowsiness
- activity resetting after 6-hour phase advance [2, 6]: accelerated activity resetting
- activity resetting after 6-hour phase advance [2, 7]: reentrained slower
- behavioral adaptation after 8-hour phase delay [3, 6]: decelerated adaptation
- behavioral adaptation after 8-hour phase delay [3, 7]: more rapid behavioural adaptation
- amplitude of glucocorticoid excretion rhythms ([4]; METD and METN, 16 days of treatment, data not shown): did not significantly change
- forward shift of corticosterone maximum relative to SALD control ([4]; METD: 100 mg/kg/day i.p. at ZT3 (rest phase) for 16 days, day prior to phase shift): 1 h
- backward shift of peak corticosterone relative to SALN ([4]; METN: 100 mg/kg/day i.p. at ZT12 (beginning of activity phase) for 16 days): 1 h
- direction of shift of the peak of maximum glucocorticoid levels ([4]; administration at 6 pm (first half of the active phase)): backward shift
- direction of shift of the peak of maximum glucocorticoid levels ([4]; administration at 9 am (first half of rest phase)): forward shift

Compound: CCCc1nn(C)c2c(=O)[nH]c(-c3cc(S(=O)(=O)N4CCN(C)CC4)ccc3OCC)nc12 [sildenafil]
- circadian responses to light [5]: enhances circadian responses to light
- reentrainment after phase advances of the LD cycle [5]: accelerates reentrainment
